{"source": "ChEMBL document CHEMBL4819103", "about": "“Discovery of selective fragment-sized immunoproteasome inhibitors” (Eur J Med Chem, 2021)", "key": {"[1]": {"assay": "Glutathione reactivity of compound at pH 8 measured by HPLC-MS assay", "format": "physicochemical"}, "[2]": {"assay": "Glutathione reactivity of compound at pH 9 measured by HPLC-MS assay", "format": "physicochemical"}, "[3]": {"biological_target": "T1, Proteasome Macropain subunit MB1 (Homo sapiens) (UniProt P28074)", "T1 sequence (whole entry)": "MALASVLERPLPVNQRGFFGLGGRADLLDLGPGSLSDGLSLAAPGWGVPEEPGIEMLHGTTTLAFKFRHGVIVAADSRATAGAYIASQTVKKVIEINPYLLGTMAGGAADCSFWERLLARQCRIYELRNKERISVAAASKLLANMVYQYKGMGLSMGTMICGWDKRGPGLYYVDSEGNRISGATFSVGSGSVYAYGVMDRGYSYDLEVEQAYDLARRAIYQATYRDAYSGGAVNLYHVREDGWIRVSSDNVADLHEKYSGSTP", "assay": "Inhibition of beta 5 chymotrypsin-like activity (unknown origin) at 100 uM using Suc-LLVY-AMC as substrate for 90 mins by fluorescence based assay", "parameters": "scale not given: the % may be the effect or the level left"}, "[4]": {"assay": "Glutathione reactivity of compound at pH 7.5 measured by HPLC-MS assay", "format": "physicochemical"}, "[5]": {"assay": "Thiol reactivity of the compound assessed as TNB2-depletion at 200 uM measured upto 24 hrs by TNB2-depletion assay", "format": "physicochemical"}, "[6]": {"biological_target": "T2, Proteasome subunit beta type-8 (Homo sapiens) (UniProt P28062)", "T2 sequence (whole entry)": "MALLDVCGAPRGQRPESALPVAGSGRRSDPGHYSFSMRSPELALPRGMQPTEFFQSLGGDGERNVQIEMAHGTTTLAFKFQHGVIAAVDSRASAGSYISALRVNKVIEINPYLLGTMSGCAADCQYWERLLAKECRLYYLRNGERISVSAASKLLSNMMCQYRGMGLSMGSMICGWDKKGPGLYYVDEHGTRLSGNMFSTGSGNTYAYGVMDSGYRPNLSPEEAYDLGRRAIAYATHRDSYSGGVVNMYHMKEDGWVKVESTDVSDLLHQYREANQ", "assay": "Inhibition of human chymotrypsin-like beta 5i subunit of iCP assessed as residual activity using suc-LLVY-AMC as flurogenic substrate at 150 uM for 90 mins by fluorescence-based assay"}, "[7]": {"assay": "Glutathione reactivity of compound at pH 8.5 measured by HPLC-MS assay", "format": "physicochemical"}, "[8]": {"biological_target": "T2, Proteasome subunit beta type-8 (Homo sapiens)", "assay": "Inhibition of human chymotrypsin-like beta 5i subunit of iCP assessed as residual activity using suc-LLVY-AMC as flurogenic substrate at 100 uM for 90 mins by fluorescence-based assay"}, "[9]": {"assay": "Solubility of the compound in buffer", "format": "physicochemical"}, "[10]": {"assay": "Solubility of the compound in DMSO", "format": "physicochemical"}, "Homo sapiens [11]": {"species": "Homo sapiens", "assay": "Selectivity ratio of IC50 for human beta2 subunit of cCP Pto IC50 for human chymotrypsin-like beta 5i subunit of iCP"}, "Homo sapiens [12]": {"species": "Homo sapiens", "assay": "Selectivity ratio of IC50 for human beta1i subunit of iCP Pto IC50 for human chymotrypsin-like beta 5i subunit of iCP"}, "[13]": {"biological_target": "T3, Proteasome Macropain subunit MB1 (Homo sapiens, UniProt P28074)", "T3 sequence (P28074 whole entry)": "T1 sequence (whole entry)", "assay": "Inhibition of beta 5 chymotrypsin-like activity (unknown origin) using Suc-LLVY-AMC as substrate for 90 mins by fluorescence based assay"}, "Homo sapiens [14]": {"species": "Homo sapiens", "assay": "Selectivity ratio of IC50 for human beta2i subunit of iCP Pto IC50 for human chymotrypsin-like beta 5i subunit of iCP"}, "[15]": {"biological_target": "T4, Proteasome subunit beta type-8 (Homo sapiens, UniProt P28062)", "T4 sequence (P28062 whole entry)": "T2 sequence (whole entry)", "assay": "Inhibition of human chymotrypsin-like beta 5i subunit of iCP using suc-LLVY-AMC as flurogenic substrate for 90 mins by fluorescence-based assay"}, "[16]": {"biological_target": "T2, Proteasome subunit beta type-8 (Homo sapiens)", "assay": "Inhibition of human chymotrypsin-like beta 5i subunit of iCP assessed as cysteine-48 labelling by Ellman's method"}}, "note": "The source made the active and inactive calls. The rule behind the calls is not given here."}
{"smiles": "Cn1c(S)nc2cc(Cl)ccc21", "values": [{"measurement": "Drug metabolism", "setting": "[1]", "result": "Metabolite_Notdetected"}, {"measurement": "Drug metabolism", "setting": "[2]", "result": "Metabolite_Notdetected"}, {"measurement": "Activity", "setting": "[3]", "result": 100, "unit": "%"}, {"measurement": "Drug metabolism", "setting": "[4]", "result": "Metabolite_Notdetected"}, {"measurement": "Drug metabolism", "setting": "[5]", "result": "Metabolite_Notdetected"}, {"measurement": "Activity", "setting": "[6]", "result": 80, "unit": "%"}, {"measurement": "Drug metabolism", "setting": "[7]", "result": "Metabolite_Notdetected"}]}
{"smiles": "Cn1c(=S)[nH]c2ccc(NC(=O)c3ccccc3)cc21", "values": [{"measurement": "Activity", "setting": "[8]", "result": 39, "unit": "%"}, {"measurement": "solubility", "setting": "[9]", "result": "Insoluble"}]}
{"smiles": "Sc1nc2ccc(Cl)cc2s1", "values": [{"measurement": "solubility", "setting": "[10]", "result": "Insoluble"}]}
{"smiles": "Cc1ccc2nc(S)sc2c1", "values": [{"measurement": "Activity", "setting": "[8]", "result": 55, "unit": "%"}, {"measurement": "solubility", "setting": "[9]", "result": "Insoluble"}]}
{"smiles": "O=S(=O)(F)c1nc2ccccc2s1", "values": [{"measurement": "Ratio IC50", "setting": "Homo sapiens [11]", "result": 7}, {"measurement": "Ratio IC50", "setting": "Homo sapiens [12]", "result": 7}, {"measurement": "IC50", "setting": "[13]", "result": 81, "unit": "µM"}, {"measurement": "Ratio IC50", "setting": "Homo sapiens [14]", "result": 7}, {"measurement": "IC50", "setting": "[15]", "result": 11, "unit": "µM"}]}
{"smiles": "N#Cc1nc2ccc(Cl)cc2o1", "values": [{"measurement": "IC50", "setting": "[13]", "result": 45, "unit": "µM"}, {"measurement": "inhibition", "setting": "[16]", "result": "Active"}, {"measurement": "IC50", "setting": "[15]", "result": 9.1, "unit": "µM"}]}
{"smiles": "O=C(CCc1cccnc1)Nc1cccc2[nH]c(=S)oc12", "values": [{"measurement": "solubility", "setting": "[10]", "result": "Insoluble"}]}
